Results: patent US12649980B2, “Three-dimensional surface for protein and small molecule microarrays” (The Johns Hopkins University, priority 2019, dated 2026)

Legend:
FKBP51 = FKBP51 (Homo sapiens, UniProt Q13451); assay: peptidyl prolyl cis-trans isomerase activity inhibition, FKBP51; assay type: biochemical; details: inhibition of prolyl isomerase activity
HCC1954 xenograft = assay: HCC1954 breast cancer xenograft in nude mice; assay type: in vivo
Procedure: Given that RgA inhibited multiple isoforms of GLUTs, including GLUT1, 3, and 4, it raised the question of whether animals could tolerate RgA. As breast cancer cell lines are more sensitive to RgA than other cell lines (FIG. 6A and Table 3), the anti-breast cancer activity of RgA in vivo was assessed. Two breast cancer cell lines were selected for the xenograft experiment-MCF-7, an ER+, HER2− line, and HCC1954, an ER−, HER2+ breast line. NSG mice bearing MCF-7 tumors were given daily vehicle or RgA at a dose of 2 mg/kg for […].
All animal studies were conducted in compliance with all relevant ethical regulations set forth by the Johns Hopkins University Animal Care and Use Committee (ACUC). Female mice aged 4-6 weeks and weighing 18-22 g were maintained in a pathogen-free facility at Johns Hopkins Medical Institutions and cared for according to National Institutes of Health guidelines and under a protocol approved by the Johns Hopkins University Animal Care Committee. For the xenograft experiment of MCF-7, 17β-estradiol pellets (0.72 mg per pellet, 60-day release, Innovative Research of America, FL) were implanted at 5 days prior to tumor cell injection. […] The tumor volume was measured periodically using a Vernier caliper and calculated according to the modified ellipsoid formula: tumor volume (mm^3)=(short axis)^2×(long axis)×π/6. […]

MCF-7 = assay: Alamar blue cell proliferation assay, MCF-7; assay type: cell-based, human; details: MCF-7, 72 h; read-out: IC50 Assay B (Alamar blue cell proliferation)
Procedure: (§1) The effects of RgA on cell growth, survival, and cell death was then determined. […] Treatment with 5 μM of RgA caused an increase in G1 phase by approximately 23% in comparison to control and approximately 7% and 17% decreases in cells in S and G2/M phases, respectively. The induction in G1 phase cell cycle arrest by RgA is dose-dependent (FIG. 5A, FIG. 16). […] Jones and Thompson, Genes Dev. 2009, 23, 537-548. […] The IC50 values of RgA against several human cancer cell lines also was determined using the alamar blue cell proliferation assay.
Cells were seeded into a 96-well plate (Costar) in 180 μL culture media. After an overnight recovery, drugs were added and incubated for 72 h. After drug incubation, cells were added with 20 μL of alamar blue reagent and the plates were incubated at 37° C. for 6 h before reading the fluorescence (544 nm Ex/590 nm Em) with a plate reader. GraphPad Prism (v4.03) software was used to determine IC50 values using a four parameter logistic regression.

p53 and p21 = assay: Western blot of p53 and p21 in MCF-7 cells; assay type: cell-based, human; details: MCF-7, 24-h treatment, dose-dependent
Procedure: as §1
For western blot analysis, cells were harvested and lysed by RIPA buffer plus protease inhibitor. Cell lysates or samples from pull-down experiment were subjected to SDS/PAGE and then transferred to a nitrocellulose membrane. Membranes were first blocked in 5% (wt/vol) BSA in Tris-buffered saline plus 0.1% Tween 20 (TBST) at room temperature for 30 min and incubated with primary antibodies at 4° C. for overnight. Membranes were then washed three times with TBST and incubated with secondary antibodies at room temperature for another 1 h. Membranes were washed with TBST three times again and incubated with ECL substrate for 1 min at room temperature. Pictures were captured using a GeneSys Image Station.

Sequence of FKBP51 (Q13451 whole entry): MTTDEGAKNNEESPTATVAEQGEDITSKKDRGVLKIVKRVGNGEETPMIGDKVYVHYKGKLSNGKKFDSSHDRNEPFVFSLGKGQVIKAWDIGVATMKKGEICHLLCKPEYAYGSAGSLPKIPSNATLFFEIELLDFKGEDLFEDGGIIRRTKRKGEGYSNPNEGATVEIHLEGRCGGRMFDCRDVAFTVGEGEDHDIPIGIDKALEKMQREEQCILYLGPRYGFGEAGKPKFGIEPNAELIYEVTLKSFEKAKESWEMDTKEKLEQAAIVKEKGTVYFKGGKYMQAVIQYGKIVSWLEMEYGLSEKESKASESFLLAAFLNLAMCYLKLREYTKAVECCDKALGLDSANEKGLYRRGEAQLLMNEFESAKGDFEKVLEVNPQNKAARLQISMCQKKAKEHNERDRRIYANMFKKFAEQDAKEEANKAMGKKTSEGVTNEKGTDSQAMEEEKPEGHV

CCC(C)C1C(=O)NCC(=O)N(C)CCC=CC(=O)OCC(C)(C)C(=O)C(=O)N2CCCCC2C(=O)OC(CCc2ccc(OC)c(OC)c2)c2cccc(c2)NC(=O)CCC(=O)N(C)C(CC(C)C)C(=O)NC(Cc2ccccc2)C(=O)N1C (centres unmarked) [JW11-D2, Rapaglutin A]
Ki (FKBP51): 46 ± 10 nM
tumor volume index on day 38 (HCC1954 xenograft; HCC1954 in nude mice, 2 mg/kg intraperitoneally daily, vehicle 26.14): 12.97
weight loss and signs of adverse effects (HCC1954 xenograft; HCC1954 xenograft mice, 2 mg/kg daily): no significant weight loss or any signs of adverse effects
IC50 (MCF-7): 87.3 nM
p53 and p21 activation (p53 and p21): activation of both p53 and p21
